Data set [1] can be described thus: Tmax in Sprague-Dawley rat serum at 600 ug/kg, sc administered as single dose measured upto 10 days by LC-MS/MS method. In kind it is ADME, organism-based. To be noted: 0.6 mg/kg, dose 600 µg/kg, time < 10 day.
Data set [2] can be described thus: Binding affinity to EBP (unknown origin) by ITC method. Details: species or system Homo sapiens. Background: In ITC the heat of successive injections is recorded.
The nature of data set [3]: Half-life in Sprague-Dawley rat serum at 600 ug/kg, sc administered as single dose measured upto 10 days by LC-MS/MS method. In kind it is ADME, organism-based. Conditions: 0.6 mg/kg, dose 600 µg/kg, time < 10 day.
For another data set, the system named is Mus musculus. Description: Antifibrotic activity against BLM-induced C57BL/6 mouse pulmonary fibrosis model assessed as improvement in lung condition at 30 mg/kg, po administered for 2 weeks starting from 7 days post BLM induction and measured after 21 days post BLM induction. The format is functional, organism-based.

Active and inactive are the calls of the source. The calls are words filed in the database; no cut-off is given here.

In general, Tmax refers to the time from dosing to the highest level. As a reminder, the Kd is a measure of binding affinity in units of concentration. High values mean weaker binding, low ones tighter binding. In general, half-life refers to the time in which the quantity being followed falls by half. Low readings indicate rapid decline, high ones slow decline. For H-VVGSPSAQDEASPL-NH2, in data set [1], the Tmax is 4.98 min. Moreover, in data set [2], the affinity, expressed as Kd, was 539 µM. For the same molecule, the half-life in data set [3] is 5.88 min.

On to `COC(=O)c1ccc2c(c1)NC(=O)/C2=C(\Nc1ccc(N(C)C(=O)CN2CCN(C)CC2)cc1)c1ccccc1`, for which, in the data set with Mus musculus, the result was Active.

Values taken from ChEMBL document CHEMBL5543137, “Design and Synthesis of Novel Ultralong-Acting Peptides as EDP-EBP Interaction Inhibitors for Pulmonary Fibrosis Treatment” (J Med Chem, 2024).
